Test results reported in patent publication US20090246293A1 (priority 2008, published 2009).
Read-outs that look alike come from different tables or passages of the source.

Experiments:
[1] = test system: Pseudoperonospora cubensis; experiment: Drop-band treatment of cucumber leaves, then spray inoculation with zoospores (Examples 1-3); assay type: in vivo
Description: The following examples were carried out on greenhouse and growth chamber experiments on cucumber plants. The cucumber plants were grown from seed in soil-free medium mix (Metro-Mix 360®) and maintained in a glasshouse with supplementary light sources to provide a 16 hour photoperiod at 24-29° C. until the plants had produced 1-2 true leaves. Plants were then trimmed to 1 true leaf, approximately 8 cm across by removing any additional leaves.
Referring below to Table 1, Dithane M45 and Dithane OS are standard commercial formulations. Isovaleraldehyde loaded onto PergoPak was prepared using the following procedure: a mixture of 1.35 g of PergoPak M (polyurea), 0.15 g of isovaleraldehyde and 8 mL of ether was stirred at room temperature for 10 min. The mixture was then concentrated by rotatory evaporation at room temperature under a slight vacuum to provide a solid that was air dried for an hour at room temperature and then bottled. All treatments were prepared by adding the appropriate amount of each treatment to distilled water to give the desired concentration of active ingredient. Dithane® M45 suspensions were initially prepared via serial dilution. Mancozeb/isovaleraldehyde solutions were prepared by adding a prepared isovaleraldehyde solution to a prepared mancozeb suspension. All solutions were vortexed and sonicated prior to treatment application to ensure that they were homogenous.
A sporangial suspension of Pseudoperonospora cubensis was made by collecting leaves with freshly sporulating lesions and washing them in distilled water, which was made up of equal volumes of chilled (4° C.) and tap distilled water (21° C.). The suspension was then left on the lab bench for 2 hours to allow the release of zoospores from the sporangia. After 2 hours the suspension was filtered through filter paper (“Whatman”, 12.5 cm, grade 113V) to remove any remaining sporangia and mycelial fragments. The zoospore concentration was determined and then adjusted to the desired concentration with distilled water.
For each example described below, an area 5 cm wide by 1 cm deep was initially marked on each cucumber leaf by placing a mark in each corner of the area. This was repeated on four separate plants to give four replicates for each treatment. Ten 15 microlitre drops were then applied to each leaf in two 5 drop bands (1 cm between each drop) and allowed to dry overnight. Subsequently a zoospore suspension of Pseudoperonospora cubensis (30,000 zoospores/mL) was sprayed with a hand-atomiser to the entire leaf until run-off. Plants were placed in a dew room (22° C. and 99% RH) for 24 hours then maintained in a growth room with supplementary light sources to provide a 14 hour photoperiod at 18° C. and 70% RH until disease assessment.
Assessment of the effectiveness of the treatment was done by visual infection within the banded area. The banded area was evaluated on a percentage scale (with 0% representing no infection and 100% representing infection of the entire area) after 5-7 days.

[2] = test system: Plasmopara viticola (PLASVI); assay type: in vivo; conditions: for Reduction in percent disease: aldehyde derivative 100 ppm with mancozeb
[3] = test system: Pseudoperonospora cubensis (PSPECU); conditions: in vivo
[4] = test system: Phytophthora infestans; assay type: in vivo; conditions: for % Disease: potatoes, field, six sprays, rated 8 days after sixth application; for Disease control compared to Dithane alone (in words): combined with Dithane, potato field trial
[5] = test system: Pseudoperonospora cubensis (PSPECU); experiment: Droplet application on cucumber leaf, growth chamber (Examples 5a-d); assay type: in vivo
Description: Examples 5a through 5d were conducted in growth chambers on cucumber plants. Cucumbers (Cucumis sativus cv Bush Pickle Hybrid #901261) were grown from seed in 5 cm by 5 cm pots containing MetroMix™ growth medium (Scotts, Marysville, Ohio) and maintained in a glasshouse with supplementary light sources to provide a 14 hour photoperiod at 24-29° C. until the plants were in the 2-3 true leaf stage of growth and the oldest leaf was fully expanded.
For examples 5a through 5d, described below, samples of mancozeb formulated as Dithane DG NT were dissolved in water to form a ½×dilution series. Mancozeb rates were 400, 200, 100 and 50 ppm. Samples of various aldehydes, amino acids, carboxylic acids, amines and alcohols were dissolved in acetone and then mixed with aqueous solutions of mancozeb. Attractant rates in the dilute solutions were 100, 200, 500 or 1000 ppm, depending on the experiment.
Mixtures of attractant or attractant derivative plus mancozeb or mancozeb alone were applied to cucumber as a row of 5 or 7.5 ul droplets using a multi-channel pipetting device. Five droplets spaced 1 cm apart were placed along the mid-rib of the expanded cucumber leaf with the first droplet being positioned at least 1-cm from the leaf apex. Each treatment was replicated three or four times, depending on the experiment. Two to three hours after applying the treatments when droplets had dried, plants were inoculated with a suspension of sporangia of a Pseudoperonospora cubensis (PSPECU) and incubated as described in the methods for sprayed tests. When symptoms were well developed in untreated check plants, the experiment was assessed visually using a template 2 cm wide and 7 cm long with the long axis centered on the mid-rib of the treated leaf.
Reduction in percent disease was calculated by subtracting percent disease on plants receiving a mixture of mancozeb plus the specified test substance from percent disease on plants receiving mancozeb alone. The results for examples 5a-5d are shown below in Tables 7-10; the reduction in percent disease was indicated as follows: […]

[6] = test system: Phytophthora infestans (PHYTIN); assay type: in vivo
[7] = Dithane 600 g ai/ha plus 300 ppm compound
[8] = substance alone 500 ppm, untreated check 95
[9] = fungicide with Formulation I at 100 ppm, Table 18

CC(C)CC(O)S(=O)(=O)[O-].[Na+] (centres unmarked) [Isovaleraldehyde bisulfite adduct, sodium]
Percent infection of Pseudoperonospora cubensis on cucumbers ([1]; isovaleraldehyde bisulfite adduct, sodium 100 ppm alone, 7 days): 45%

CCCC=NNC(=O)Nc1ccccc1 [Compound A]
Reduction in percent disease ([2]; PLASVI, Table 13): xx (21-35% reduction in percent disease) | Reduction in percent disease [3]: xx (key: x: 0-20% reduction in percent disease; xx: 21-35% reduction in percent disease; xxx: 36-50% reduction in percent disease; xxxx: >50% reduction in percent disease) | % Disease ([4]; 300 ppm compound alone): 98% | % Disease [4, 7]: 20% | Disease control compared to Dithane alone (in words) [4]: significantly improve disease control

CC(C)CC=O [Isovaleraldehyde, isovaleraldehyde]
Reduction in percent disease PLASVI ([2]; substance 500 ppm with mancozeb 6.25 ppm (Dithane DGNT), foliar spray, inoculated 2 to 3 hours after treatment): xxx (36-50% reduction in percent disease) | % disease at 500 ppm of substance alone PLASVI [2, 8]: 93% | Percent infection of Pseudoperonospora cubensis on cucumbers ([1]; isovaleraldehyde 50 ppm (sorbed to PergoPak M) alone, 5 days after application): 41% | Percent infection of Pseudoperonospora cubensis on cucumbers ([1]; isovaleraldehyde 100 ppm (sorbed to PergoPak M) alone, 5 days after application): 34% | Percent infection of Pseudoperonospora cubensis on cucumbers ([1]; isovaleraldehyde 100 ppm alone, 7 days after application): 41% | Percent infection of Pseudoperonospora cubensis on cucumbers ([1]; isovaleraldehyde 500 ppm (sorbed to PergoPak M) alone, 5 days after application): 44% | Percent infection of Pseudoperonospora cubensis on cucumbers ([1]; pure isovaleraldehyde 50 ppm alone, 6 days after application): 51% | Percent infection of Pseudoperonospora cubensis on cucumbers ([1]; pure isovaleraldehyde 100 ppm alone, 6 days after application): 44% | Reduction in % Disease ([5]; substance 100 ppm with mancozeb 200 ppm vs mancozeb alone, Table 9): xx (21-35% reduction in percent disease) | Reduction in % Disease ([5]; substance 200 ppm with mancozeb 50 ppm vs mancozeb alone, cucumber): xxxx (>50% reduction in percent disease) | Reduction in % Disease ([5]; substance 500 ppm with mancozeb 200 ppm vs mancozeb alone, Table 8): xx (21-35% reduction in percent disease) | Reduction in % Disease ([5]; substance 1000 ppm with mancozeb 50 ppm vs mancozeb alone, cucumber): xxx (36-50% reduction in percent disease) | % disease at 100 ppm of substance alone ([5]; substance alone 100 ppm, untreated check 92%, Table 9): 86% | % disease at 500 ppm of substance alone ([5]; substance alone 500 ppm, untreated check 91%): 93% | % disease at 1000 ppm of substance alone ([5]; substance alone 1000 ppm, untreated check 100%): 100% | Reduction in percent disease PHYTIN ([6]; substance 500 ppm with mancozeb 25 ppm (Dithane DGNT), foliar spray, inoculated 2 to 3 hours after treatment): xxx (36-50% reduction in percent disease) | % disease at 500 ppm of substance alone PHYTIN [6, 8]: 77%

N#Cc1c(Cl)c(Cl)c(Cl)c(C#N)c1Cl [Chlorothalonil, chlorothalonil]
Reduction in percent disease, Formul. I ([2]; PLASVI, fungicide with Formulation I at 100 ppm of attractant derivative, Table 22): x (0-20% reduction in percent disease) | Reduction in percent disease, Formul. I [3]: x (key: x: 0-20% reduction in percent disease; xx: 21-35% reduction in percent disease; xxx: 36-50% reduction in percent disease; xxxx: >50% reduction in percent disease) | Percent infection of Pseudoperonospora cubensis on cucumbers ([1]; chlorothalonil 5 ppm alone, 7 days after application): 24% | Percent infection of Pseudoperonospora cubensis on cucumbers ([1]; chlorothalonil 20 ppm alone, 7 days after application): 9% | Percent infection of Pseudoperonospora cubensis on cucumbers ([1]; chlorothalonil 100 ppm alone, 7 days after application): 0% | Reduction in percent disease, Formul. I ([6]; PHYTIN, fungicide with Formulation I at 100 ppm of attractant derivative, Table 22): x (0-20% reduction in percent disease)

condensation product of urea and isovalderaldehyde [Compound B]
Reduction in percent disease ([2]; PLASVI, Table 13): xx (21-35% reduction in percent disease) | Reduction in percent disease ([2]; PLASVI, Table 15): xx (21-35% reduction in percent disease) | Reduction in percent disease [3]: x (key: x: 0-20% reduction in percent disease; xx: 21-35% reduction in percent disease; xxx: 36-50% reduction in percent disease; xxxx: >50% reduction in percent disease) | % Disease ([4]; 300 ppm compound alone): 98% | % Disease [4, 7]: 9% | Disease control compared to Dithane alone (in words) [4]: significantly improve disease control

CCC(C)(NC(=O)c1cc(Cl)c(C)c(Cl)c1)C(=O)CCl (centres unmarked) [Zoxamide, zoxamide]
effect of Formulation I on the effectiveness of fungicides, PSPECU [3]: x (key: x: 0-20% reduction in percent disease; xx: 21-35% reduction in percent disease; xxx: 36-50% reduction in percent disease; xxxx: >50% reduction in percent disease) | Percent infection of Pseudoperonospora cubensis on cucumbers ([1]; zoxamide 1 ppm alone, 7 days after application): 28% | Percent infection of Pseudoperonospora cubensis on cucumbers ([1]; zoxamide 5 ppm alone, 7 days after application): 16% | Percent infection of Pseudoperonospora cubensis on cucumbers ([1]; zoxamide 25 ppm alone, 7 days after application): 16% | effect of Formulation I on the effectiveness of fungicides, PHYTIN ([6]; fungicide with Formulation I at 100 ppm, Table 20): xx (21-35% reduction in percent disease)

CO/C=C(/C(=O)OC)c1ccccc1COc1cccc(C(F)(F)F)n1 [Picoxystrobin]
Reduction in percent disease PLASVI [2, 9]: xxx (36-50% reduction in percent disease) | Reduction in percent disease, Formul. II [3]: x (key: x: 0-20% reduction in percent disease; xx: 21-35% reduction in percent disease; xxx: 36-50% reduction in percent disease; xxxx: >50% reduction in percent disease) | Reduction in percent disease, Formul. II ([6]; PHYTIN, fungicide with Formulation II at 100 ppm of attractant derivative, Table 22): x (0-20% reduction in percent disease) | Reduction in percent disease PHYTIN [6, 9]: x (0-20% reduction in percent disease)

CCNC(=O)NC(=O)/C(C#N)=N/OC [Cymoxanil]
Reduction in percent disease PLASVI [2, 9]: x (0-20% reduction in percent disease) | Reduction in percent disease PSPECU [3]: x (key: x: 0-20% reduction in percent disease; xx: 21-35% reduction in percent disease; xxx: 36-50% reduction in percent disease; xxxx: >50% reduction in percent disease) | Reduction in percent disease PHYTIN [6, 9]: xx (21-35% reduction in percent disease)
